Reference: US11959096B2, “Methods for selective inhibition of pluripotent stem cells” (THE MEDICAL COLLEGE OF WISCONSIN, INC., priority 2014, dated 2024)

Columns and labels:
hiPSC (DF6-9-9T) [1] = assay: SYTOX Green cell viability assay; format: cell-based, human; conditions: 72 hours treatment; 2.5 μM STF-31, 30 μM WZB117, 20 μM PluriSIn
Description: (§1) In Vitro Toxicity Assays: Treatment with small molecules or glucose deprivation was initiated in hESC or hiPSC at 24 and 96 h post-plating and in vitro toxicity assays were performed at specified treatment endpoints 24-96 hours after treatment initiation. […] Neutral red assays for cell viability were performed as previously described. In vitro cell death was determined using SYTOX® Green nucleic acid stain (Life Technologies). Briefly, cells were incubated in 5 μM SYTOX® Green for 30 minutes at 37° C. in a humidified cell incubator with 5% CO2. Percent cell viability was determined by normalizing to replicate cells incubated with 120 μM digitonin (Sigma-Aldrich) and 5 μM SYTOX® Green. Imaging of cell viability was performed using Live/Dead® Viability/Cytotoxicity Kit, for mammalian cells (Life Technologies). Cells were stained for 20 minutes at room temperature with 4 μM Calcein AM to detect viable cells and 2 μM Ethidium Homodimer 1 to detect cells with compromised membranes. Representative images of alterations in cell morphology were acquired on confluent hPSC 24-72 hours after treatment initiation. Imaging was performed with a Nikon Ti-U inverted microscope.

hiPSC [2] = assay: Live/dead staining (calcein AM / ethidium homodimer-1); format: cell-based, human; conditions: 72 hours, confluent; 2.5 μM STF-31, 30 μM WZB117, 20 μM PluriSIn
Description: as §1

hiPSC (DF6-9-9T) [3] = assay: Neutral red cell viability assay in hiPSC; format: cell-based, human; conditions: for elimination of hiPSC: 24 hour treatment, sub-confluent hiPSC; for toxicity: 72 hours
Description: Neutral red assays for cell viability were performed as previously described. In vitro cell death was determined using SYTOX® Green nucleic acid stain (Life Technologies). Briefly, cells were incubated in 5 μM SYTOX® Green for 30 minutes at 37° C. in a humidified cell incubator with 5% CO2. […] Imaging of cell viability was performed using Live/Dead® Viability/Cytotoxicity Kit, for mammalian cells (Life Technologies). Cells were stained for 20 minutes at room temperature with 4 μM Calcein AM to detect viable cells and 2 μM Ethidium Homodimer 1 to detect cells with compromised membranes. […] Imaging was performed with a Nikon Ti-U inverted microscope.

[4] = system: confluent hiPSC (DF6-9-9T); assay: Bright field imaging of cell morphology; format: cell-based, human; conditions: 72 hours, 2.5 μM STF-31, 30 μM WZB117, 20 μM PluriSIn
Description: as §1

confluent hiPSC = assay: Colony formation assay (alkaline phosphatase staining); format: cell-based, human; conditions: 24 hour pulse, cells passaged, cultured 6 days
Description: The first iteration was adapted from previously described method, after 24 hours of treatment, hiPSC were detached with Accutase (StemCell Technologies), re-suspended in E8, passed though 12×75 mm tube with cell strainer cap (Falcon), and plated at 5e4 live cells per 2 cm^2. Media were changed every 48 hours and cells were cultured for six days, at which time staining for alkaline phosphatase was performed with leukocyte alkaline phosphatase kit (Sigma-Aldrich) as described and plates were visually inspected for phosphatase-positive colonies. This strategy represents the most common implementation of the colony formation assay. However, concerns regarding the cell death normally encountered during passaging prompted another approach for stricter assessment. In the second iteration, cells were treated for 24 hours, washed twice with 0.5 mL D-PBS, and media refreshed with E8. Thereafter, media were replaced daily for six days at which point staining for alkaline phosphatase activity was performed. […] Elimination of hiPSC from co-cultures with differentiated cells was performed with human fibroblasts and day 10 cardiomyocytes derived from hiPSC. hiPSC (DF6-9-9T) were plated at concentrations ranging from 100-10,000 live cells per well with human fibroblasts (1.75e5 cells) or day 10 differentiated cardiomyocytes (3.75e5 cells) in E8 and Y-27632 per 9.6 cm^2. […] Six days after plating, staining for alkaline phosphatase activity was performed. […] Imaging of wells was performed with a Sony Cyber-shot DSC-TX30 and individual colonies with a Nikon stereoscope.

hiPSC [5] = assay: Extracellular flux analysis (ECAR, OCR); format: cell-based, human
Description: Extracellular Flux Analysis: hiPSC were plated at 6e4 cells per well on specialized microplate (Seahorse Bioscience) as previously described with several exceptions. Extracellular flux analysis was performed on hiPSC 48 hours post-plating using Seahorse Bioscience XF24 Analyzer. […] The microplate was equilibrated in non-CO2 incubator for 1.5 h, and analyzed for 16 h in Seahorse Bioscience XF24 Analyzer. Assay medium consists of basal E8 reagents with the following exceptions: basal DMEM F-12 without phenol red (Gibco), no sodium bicarbonate, and 2.5 mM GlutaMAX™ (Gibco) and 15 mM Hepes (Gibco). Assay medium was adjusted to pH 7.4 at 37° C. prior to use. Extracellular acidification rate (ECAR) and basal oxygen consumption rate (OCR) were collected approximately every 60 minutes. Treatments were normalized to baseline media control value and are represented as average of thee biological replicates.

sub-confluent hiPSC [6] = assay: Glucose uptake assay ([3H]2-deoxyglucose); format: cell-based, human; conditions: 1 hour of treatment; 2.5 μM STF-31, 30 μM WZB117
Description: For 1 hour treatment, cells were placed in Krebs-Ringer Hepes (KRH) containing treatment at 37° C. in a humidified cell incubator with 5% CO2. For 15, 18, and 24 hour treatments, cells were treated in E8 medium for 14, 17, and 23 hours, respectively, at which point media was changed to KRH buffer containing specific treatment for 1 hour. After specified treatment time, glucose uptake was performed with 0.5 μCi [^3H]2-deoxyglucose for 5 min at 37° C. as previously described. Uptake data were normalized to protein concentration measured with Lowry method.

sub-confluent hiPSC [7] = assay: Immunoblot analysis of p-AMPK, AMPK, cleaved caspase-3 and -9; format: cell-based, human
Description: Immunoblot Analysis: Non-adherent cells were collected by centrifugation, adherent cells were washed once with d-PBS and lysed in Laemmli buffer, combined with non-adherent cell pellet, and heated at 95° C. for 5 minutes. Protein concentration was measured using the Qubit protein assay (Life Technologies). 25 μg of total protein was separated by SDS-PAGE, transferred to nitrocellulose membrane (GE Healthcare Life Sciences) and blocked according to the manufacturer's instructions. Membranes were incubated overnight at 4° C. with the following dilutions of primary antibodies: rabbit anti-cleaved caspase-3 (1:500), rabbit anti-caspase-9 (1:1000), rabbit anti-phospho-AMPK (1:1000), and rabbit anti-AMPK (1:1,000) from Cell Signaling Technology, and mouse anti-GAPDH (1:10,000) from Life Technologies. Membranes were then incubated with secondary antibodies for 45 minutes at the following concentrations: donkey anti-mouse-horseradish peroxidase (1:5,000) and donkey anti-rabbit-horseradish peroxidase (1:7,000) from Jackson Immunoresearch Laboratories, Inc., followed by detection using enhanced chemiluminescence.

sub-confluent hiPSC [8] = assay: Cleaved caspase-3/7 fluorescence based assay; format: cell-based, human; conditions: after initiation of treatment; 2.5 μM STF-31, 30 μM WZB117
hiPSCs = assay: Cell viability of hiPSCs treated with FK866; format: cell-based, human; conditions: up to 72 hours
Description: FIG. 10 presents data regarding FK866 toxicity on human pluripotent stem cells. […] Cell viability data is presented for hiPSCs treated with FK866 for up to 72 hours. […] (B) Cell viability of human pluripotent stem cells 72 hours after treatment initiation with FK866. Cells were treated with a range of concentrations (1 nM to 10 μM) either continuously or for 24 hour pulse.
FIG. 10 presents cell viability data for hiPSCs treated with FK866 (FIG. 9B) for up to 72 hours. […] Therefore, an effective strategy for selectively eliminating pluripotent stem cells is to deplete NAD^+ levels using a NAMPT inhibitor. […] Thus, these compounds will be useful for selectively eliminating tumorigenic cells in cells prepared for transplantation, independent of whether teratoma-causing cells in differentiated cultures are pluripotent or comprise one or more differentiated phenotypes.

[9] = system: PAX6 positive neural progenitor cells; format: cell-based; conditions: 72 hours continuous STF-31 plus exogenous NA
Source text: Data expressed as mean+S.D. (n=4); p<0.05, **p<0.01, ***p<0.001. […] Data expressed as mean+S.D. (n=4), *p<0.05, **p<0.01, ***p<0.001.

[10] = sub-confluent cells, 30 μM WZB117, 20 μM PluriSIn

## O=C(Oc1cccc(F)c1OC(=O)c1cccc(O)c1)c1cccc(O)c1 [WZB117]
hiPSC (DF6-9-9T) [1]
  cell viability (SYTOX Green): no significant reduction
hiPSC [2]
  live/dead staining: not toxic
hiPSC (DF6-9-9T) [3]; 30 μM WZB117, 20 μM PluriSIn
  elimination of hiPSC: eliminated sub-confluent hiPSC
hiPSC (DF6-9-9T) [3]; confluent cells treated 24 hours post-plating, 30 μM WZB117
  toxicity: toxic
hiPSC (DF6-9-9T) [3]; confluent cells treated 96 hours post-plating, 30 μM WZB117
  toxicity: significantly less toxic
hiPSC (DF6-9-9T) [3]; [10]
  toxicity: toxic
[4]
  morphology of hiPSC: morphological changes such as cell swelling
Confluent hiPSC
  formation of alkaline phosphatase-positive colonies: did not prevent colony growth
hiPSC [5]; 2.5 μM STF-31, 30 μM WZB117
  time before reductions in OCR: ≤ 8 h
hiPSC [5]; 30 μM WZB117
  effect on ECAR: decrease in ECAR by the earliest timepoint measured
sub-confluent hiPSC [6]
  decrease in glucose uptake: 20%
sub-confluent hiPSC [7]; 2.5 μM STF-31, 30 μM WZB117
  time at which cleaved caspase-3 and -9 are observed: 12 h
sub-confluent hiPSC [7]; 30 μM WZB117
  time by which total levels of AMPK decreased: ≤ 24 h
sub-confluent hiPSC [7]; post-treatment, 2.5 μM STF-31, 30 μM WZB117
  time at which p-AMPK is detected/increased: 12 h
sub-confluent hiPSC [8]
  time of induction of caspase-3/7 activity: 12 h

## NC(=O)c1cccnc1 [nicotinamide]
hiPSC (DF6-9-9T) [3]; 10 and 100 μM nicotinamide, data not shown
  rescue of STF-31 mediated toxicity: failed to rescue

## O=C(/C=C/c1cccnc1)NCCCCC1CCN(C(=O)c2ccccc2)CC1 [FK866]
hiPSCs
  toxicity to human pluripotent stem cells relative to STF-31: toxic to human pluripotent stem cells at lower concentrations than STF-31

## O=C(O)c1cccnc1 [nicotinic acid]
[9]
  rescue of cell death caused by STF-31: can be rescued

## O=C(NNc1ccccc1)c1ccncc1 [PluriSIn]
hiPSC (DF6-9-9T) [1]
  cell viability (SYTOX Green): no significant reduction
hiPSC [2]
  live/dead staining: not toxic
hiPSC (DF6-9-9T) [3]; 30 μM WZB117, 20 μM PluriSIn
  elimination of hiPSC: eliminated sub-confluent hiPSC
hiPSC (DF6-9-9T) [3]; confluent cells, 20-40 μM
  cell death with increasing concentrations: did not result in cell death
hiPSC (DF6-9-9T) [3]; confluent cells, 20 μM PluriSIn
  toxicity: did not induce significant toxicity
hiPSC (DF6-9-9T) [3]; [10]
  toxicity: only effective on sub-confluent cells
[4]
  morphology of hiPSC: minimal alterations in the morphology
Confluent hiPSC
  formation of alkaline phosphatase-positive colonies: did not prevent colony growth
